Test results published in patent US20240299385A1 (ReWind Therapeutics NV, priority 2021, published 2024).

Molecular target: T1, human GPR17 receptor (Homo sapiens, UniProt Q13304)
T1 construct: host or cells: HEK-293
Assay: Calcium mobilization functional assay (Fluo-8, FLIPR TETRA) in HEK-293 hGPR17 (Gα-q assay)
Type: cell-based
Conditions: antagonism of MDL29,951 (~EC80) induced Ca2+ signal; cell line (HEK-293 hGPR17 or HEK-293 Suchi5 hGPR17) not given
How it was run: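 Fluo-8-loaded HEK-293 hGPR17 cells (60 min dye loading, room temperature) were preincubated with compound for twenty minutes, then challenged with agonist MDL29,951 at ~EC80, 500 nM. Intracellular calcium release via Gα-q was recorded as FLIPR fluorescence for a further 2 minutes; compounds tested in duplicate.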

T1 sequence (Q13304 whole entry): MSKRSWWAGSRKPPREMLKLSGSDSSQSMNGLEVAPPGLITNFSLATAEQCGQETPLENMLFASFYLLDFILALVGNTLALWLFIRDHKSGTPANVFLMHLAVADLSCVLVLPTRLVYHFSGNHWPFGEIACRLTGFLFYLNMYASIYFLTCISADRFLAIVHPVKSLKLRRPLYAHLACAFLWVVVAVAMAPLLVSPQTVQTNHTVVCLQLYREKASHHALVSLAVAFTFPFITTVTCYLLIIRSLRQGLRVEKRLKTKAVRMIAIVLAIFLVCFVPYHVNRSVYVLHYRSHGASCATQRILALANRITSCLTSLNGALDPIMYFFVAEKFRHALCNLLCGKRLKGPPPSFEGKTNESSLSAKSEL

Compound	IC50 [nM]
N#Cc1ccc(NS(=O)(=O)c2c[nH]cc2Cc2cc(F)cc(F)c2)c(F)c1 [Cpd 546, N-(4-cyano-2-fluorophenyl)-4-[(3,5-difluorophenyl)methyl]-1H-pyrrole-3-sulfonamide]	< 500
N#Cc1cc(F)c(NS(=O)(=O)c2c[nH]c(C3CCC3)c2)cc1F [Cpd 549, N-(4-cyano-2,5-difluorophenyl)-5-cyclobutyl-1H-pyrrole-3-sulfonamide]	< 500
O=S(=O)(Nc1cc(F)c(OC(F)F)cc1F)c1c[nH]c(C2CCC2)c1 [Cpd 550, 5-cyclobutyl-N-[4-(difluoromethoxy)-2,5-difluorophenyl]-1H-pyrrole-3-sulfonamide]	< 500
O=S(=O)(Nc1cc(F)c(Br)cc1F)c1c[nH]c(C2CCC2)c1 [Cpd 551, N-(4-bromo-2,5-difluorophenyl)-5-cyclobutyl-1H-pyrrole-3-sulfonamide]	< 500
O=S(=O)(Nc1cc(F)c(OC(F)F)cc1F)c1c[nH]c(-c2cccc3cccnc23)c1 [Cpd 552, N-[4-(difluoromethoxy)-2,5-difluorophenyl]-5-quinolin-8-yl-1H-pyrrole-3-sulfonamide]	500 to 5000
O=S(=O)(Nc1cc(F)c(OC(F)F)cc1F)c1c[nH]c(-c2cccc3ccoc23)c1 [Cpd 553, 5-(1-benzofuran-7-yl)-N-[4-(difluoromethoxy)-2,5-difluorophenyl]-1H-pyrrole-3-sulfonamide]	500 to 5000
N#Cc1ccc(F)c(-c2cc(S(=O)(=O)Nc3cc(F)c(C(F)(F)F)cc3F)c[nH]2)c1 [Cpd 554, 5-(5-cyano-2-fluorophenyl)-N-[2,5-difluoro-4-(trifluoromethyl)phenyl]-1H-pyrrole-3-sulfonamide]	< 500
Cn1cccc(-c2cc(S(=O)(=O)Nc3cc(F)c(C(F)(F)F)cc3F)c[nH]2)c1=O [Cpd 555, N-[2,5-difluoro-4-(trifluoromethyl)phenyl]-5-(1-methyl-2-oxopyridin-3-yl)-1H-pyrrole-3-sulfonamide]	< 500
O=S(=O)(Nc1cc(F)c(C(F)(F)F)cc1F)c1c[nH]c(-c2cnccc2Cl)c1 [Cpd 556, 5-(4-chloropyridin-3-yl)-N-[2,5-difluoro-4-(trifluoromethyl)phenyl]-1H-pyrrole-3-sulfonamide]	< 500
O=S(=O)(Nc1cc(F)c(C(F)(F)F)cc1F)c1c[nH]c(-c2cnsc2)c1 [Cpd 559, N-[2,5-difluoro-4-(trifluoromethyl)phenyl]-5-(1,2-thiazol-4-yl)-1H-pyrrole-3-sulfonamide]	< 500
O=S(=O)(Nc1cc(F)c(Br)cc1F)c1c[nH]c(-c2cccc3ccoc23)c1 [Cpd 561, 5-(1-benzofuran-7-yl)-N-(4-bromo-2,5-difluorophenyl)-1H-pyrrole-3-sulfonamide]	500 to 5000
N#Cc1ccc(NS(=O)(=O)c2c[nH]c(-c3csc(Cl)c3)c2)c(F)c1 [Cpd 562, 5-(5-chlorothiophen-3-yl)-N-(4-cyano-2-fluorophenyl)-1H-pyrrole-3-sulfonamide]	< 500
N#Cc1ccc(NS(=O)(=O)c2c[nH]c(-c3cc(Cl)cs3)c2)c(F)c1 [Cpd 563, 5-(4-chlorothiophen-2-yl)-N-(4-cyano-2-fluorophenyl)-1H-pyrrole-3-sulfonamide]	< 500
O=S(=O)(Nc1cc(F)c(C(F)(F)F)cc1F)c1c[nH]c(-c2ccc3cccnn23)c1 [Cpd 567, N-[2,5-difluoro-4-(trifluoromethyl)phenyl]-5-pyrrolo[1,2-b]pyridazin-7-yl-1H-pyrrole-3-sulfonamide]	< 500
N#Cc1ccc(NS(=O)(=O)c2c[nH]c(-c3ccc(F)s3)c2)c(F)c1 [Cpd 570, N-(4-cyano-2-fluorophenyl)-5-(5-fluorothiophen-2-yl)-1H-pyrrole-3-sulfonamide]	< 500
CC1(C)CC(c2cc(S(=O)(=O)Nc3cc(F)c(C(F)(F)F)cc3F)c[nH]2)C1 [Cpd 571, N-[2,5-difluoro-4-(trifluoromethyl)phenyl]-5-(3,3-dimethylcyclobutyl)-1H-pyrrole-3-sulfonamide]	5000 to 50000
N#Cc1cc(F)c(NS(=O)(=O)c2c[nH]c(-c3cccc4ccsc34)c2)cc1F [Cpd 572, 5-(1-benzothiophen-7-yl)-N-(4-cyano-2,5-difluorophenyl)-1H-pyrrole-3-sulfonamide]	< 500

Further lines, results first:

IC50 [nM]	Compound
500 to 5000	COc1cc(F)cc(Cc2c[nH]cc2S(=O)(=O)Nc2ccc(C#N)cc2F)c1 [Cpd 547, N-(4-cyano-2-fluorophenyl)-4-[(3-fluoro-5-methoxyphenyl)methyl]-1H-pyrrole-3-sulfonamide]
< 500	N#Cc1cc(F)c(NS(=O)(=O)c2c[nH]cc2Cc2cccc(OC(F)F)c2)cc1F [Cpd 548, N-(4-cyano-2,5-difluorophenyl)-4-[[3-(difluoromethoxy)phenyl]methyl]-1H-pyrrole-3-sulfonamide]
< 500	O=S(=O)(Nc1cc(F)c(C(F)(F)F)cc1F)c1c[nH]c(-c2c(F)ccnc2F)c1 [Cpd 557, 5-(2,4-difluoropyridin-3-yl)-N-[2,5-difluoro-4-(trifluoromethyl)phenyl]-1H-pyrrole-3-sulfonamide]
500 to 5000	O=S(=O)(Nc1cc(F)c(C(F)(F)F)cc1F)c1c[nH]cc1Cc1cccc(OC(F)F)c1 [Cpd 558, 4-[[3-(difluoromethoxy)phenyl]methyl]-N-[2,5-difluoro-4-(trifluoromethyl)phenyl]-1H-pyrrole-3-sulfonamide]
5000 to 50000	COCc1cccnc1-c1cc(S(=O)(=O)Nc2cc(F)c(C(F)(F)F)cc2F)c[nH]1 [Cpd 560, N-[2,5-difluoro-4-(trifluoromethyl)phenyl]-5-[3-(methoxymethyl)pyridin-2-yl]-1H-pyrrole-3-sulfonamide]
500 to 5000	N#Cc1cccc(-c2cc(S(=O)(=O)Nc3cc(F)c(C(F)(F)F)cc3F)c[nH]2)c1F [Cpd 564, 5-(3-cyano-2-fluorophenyl)-N-[2,5-difluoro-4-(trifluoromethyl)phenyl]-1H-pyrrole-3-sulfonamide]
500 to 5000	O=S(=O)(Nc1cc(F)c(C(F)(F)F)cc1F)c1c[nH]c(-c2cccn3ccnc23)c1 [Cpd 565, N-[2,5-difluoro-4-(trifluoromethyl)phenyl]-5-imidazo[1,2-a]pyridin-8-yl-1H-pyrrole-3-sulfonamide]
500 to 5000	O=S(=O)(Nc1cc(F)c(C(F)(F)F)cc1F)c1c[nH]c(-c2cccc3ccnn23)c1 [Cpd 566, N-[2,5-difluoro-4-(trifluoromethyl)phenyl]-5-pyrazolo[1,5-a]pyridin-7-yl-1H-pyrrole-3-sulfonamide]
500 to 5000	O=S(=O)(Nc1cc(F)c(C(F)(F)F)cc1F)c1c[nH]cc1Cc1cccc(Cl)c1 [Cpd 568, 4-[(3-chlorophenyl)methyl]-N-[2,5-difluoro-4-(trifluoromethyl)phenyl]-1H-pyrrole-3-sulfonamide]
< 500	N#Cc1cc(F)c(NS(=O)(=O)c2c[nH]cc2Cc2cccc(Cl)c2)cc1F [Cpd 569, 4-[(3-chlorophenyl)methyl]-N-(4-cyano-2,5-difluorophenyl)-1H-pyrrole-3-sulfonamide]
500 to 5000	O=S(=O)(Nc1cc(F)c(C(F)(F)F)cc1F)c1c[nH]c(-c2ncccc2CF)c1 [Cpd 573, N-[2,5-difluoro-4-(trifluoromethyl)phenyl]-5-[3-(fluoromethyl)pyridin-2-yl]-1H-pyrrole-3-sulfonamide]
500 to 5000	N#Cc1cccc(Cc2c[nH]cc2S(=O)(=O)Nc2cc(F)c(C(F)(F)F)cc2F)c1 [Cpd 574, 4-[(3-cyanophenyl)methyl]-N-[2,5-difluoro-4-(trifluoromethyl)phenyl]-1H-pyrrole-3-sulfonamide]
